Values quoted from earlier work in paper PMC12308805, “Ultrahigh-Throughput Virtual Screening Strategies against PPI Targets: A Case Study of STAT Inhibitors” (Journal of Chemical Information and Modeling, 2025).

test system: STAT3; conditions: sheet 6QHD_actives_decoys, retrospective screening set for STAT3 SH2 domain (PDB 6QHD); decoys are presumed inactives, not tested; ref DUD-E; cited from earlier work

| Compound | Type |
| --- | --- |
| COc1ccc(C(OC[C@H]2O[C@H](Oc3ccc([N+](=O)[O-])cc3)[C@@H](O)[C@@H](O)[C@@H]2O)(c2ccccc2)c2ccc(OC)cc2)cc1 [Decoy888] | Inactive (Decoy) |
| CCc1ccc(NC(=O)CSC2=C(C#N)[C@H](c3ccco3)C(C(=O)Nc3ccc(S(N)(=O)=O)cc3)=C(C)N2)cc1 [Decoy855] | Inactive (Decoy) |
| COc1cc([C@H]2c3cc(OC)c(O[C@H]4O[C@@H](CO)[C@@H](O)[C@@H](O)[C@H]4O)c(OC)c3C[C@H](CO)[C@@H]2CO)cc(OC)c1O [Decoy824] | Inactive (Decoy) |
| CC(C)(CO[P@](=O)(O)O[P@](=O)(O)OC[C@H]1O[C@@H](n2cnc3c(N)ncnc32)[C@H](O)[C@@H]1OP(=O)(O)O)[C@@H](O)C(=O)NCCC(=O)NCCS [Decoy847] | Inactive (Decoy) |
| CCCCNC(=O)[C@@H](c1cc([N+](=O)[O-])ccc1Cl)N(Cc1ccc(C)o1)C(=O)c1ccccc1O [Decoy813] | Inactive (Decoy) |
| COc1c([C@@H]2OC[C@H](OC(C)=O)[C@@H](OC(C)=O)[C@H]2OC(C)=O)c(O)cc2oc(-c3ccc(O[C@H]4O[C@@H](CO)[C@@H](O)[C@@H](O)[C@H]4O)cc3)cc(=O)c12 [Decoy774] | Inactive (Decoy) |

same assay, conditions: sheet 6QHD_actives_decoys; known STAT3 actives of the retrospective screening set; ref ChEMBL / literature; cited from earlier work

| Compound | Type (known STAT3 active) |
| --- | --- |
| CC(=O)N[C@@H](Cc1ccc(OC(C(=O)O)C(=O)O)cc1)C(=O)N[C@@H](CC(C)C)C(=O)N1CCC[C@H]1C(=O)N[C@@H](CCC(N)=O)C(=O)N[C@H](C(=O)N[C@H](C(=O)O)C(C)C)[C@@H](C)O [CHEMBL231705] | Active |

same assay, conditions: sheet 6QHD_actives_decoys; retrospective screening set for STAT3 SH2 domain (PDB 6QHD); […]; ref DUD-E; cited from earlier work

| Compound | Type |
| --- | --- |
| C[C@@H](O)CC(=O)SCCNC(=O)CCNC(=O)[C@@H](O)C(C)(C)CO[P@](=O)(O)O[P@](=O)(O)OC[C@H]1O[C@@H](n2cnc3c(N)ncnc32)[C@@H](O)[C@H]1OP(=O)(O)O [Decoy404] | Inactive (Decoy) |

same assay, conditions: sheet 6QHD_actives_decoys; retrospective screening set for STAT3 SH2 domain (PDB 6QHD); decoys generated with DUD-E and presumed inactive, not tested; ref DUD-E; cited from earlier work

| Compound | Type |
| --- | --- |
| CCCOc1ccc(C(=O)C2=C(O)C(=O)N(CCN3CCOCC3)[C@@H]2c2ccc(O)c(OC)c2)cc1C [Decoy564] | Inactive (Decoy) |
| CCN(CC)S(=O)(=O)c1ccc(NC(=O)CSc2n[nH]c(NN=C3CCCC3)n2)cc1 [Decoy684] | Inactive (Decoy) |
| CCCCn1c(N)c(N(CCOC)C(=O)CSc2nc3ccccc3s2)c(=O)[nH]c1=O [Decoy723] | Inactive (Decoy) |
| O=C(CCCCCNC(=O)CCCC[C@H]1SC[C@H]2NC(=O)N[C@@H]21)NC/C=C/c1cn([C@@H]2O[C@@H](CO[P@](=O)(O)O[P@](=O)(O)OP(=O)(O)O)[C@@H](O)[C@H]2O)c(=O)nc1O [Decoy440] | Inactive (Decoy) |
| O=C(O)CN(CC(=O)O)[C@@H](CCCCNC(=S)Nc1ccc(-c2c3ccc(=O)cc-3oc3cc(O)ccc23)c(C(=O)O)c1)C(=O)O [Decoy515] | Inactive (Decoy) |
| COCCOc1ccc(C(F)(F)F)cc1NC(=O)CSc1nnc(-c2ccc(OC)cc2)o1 [Decoy488] | Inactive (Decoy) |
